Publication PMC2857964 (Bioorganic & medicinal chemistry letters, 2010)

Target: hMC4R (Homo sapiens, UniProt P32245)
Assay: Saturation binding of Eu-labeled probe to Hek293 cells overexpressing hMC4R
Settings: Kd of labeled ligand compared with parental ligand MSH(4)

Chain of hMC4R (P32245 whole entry): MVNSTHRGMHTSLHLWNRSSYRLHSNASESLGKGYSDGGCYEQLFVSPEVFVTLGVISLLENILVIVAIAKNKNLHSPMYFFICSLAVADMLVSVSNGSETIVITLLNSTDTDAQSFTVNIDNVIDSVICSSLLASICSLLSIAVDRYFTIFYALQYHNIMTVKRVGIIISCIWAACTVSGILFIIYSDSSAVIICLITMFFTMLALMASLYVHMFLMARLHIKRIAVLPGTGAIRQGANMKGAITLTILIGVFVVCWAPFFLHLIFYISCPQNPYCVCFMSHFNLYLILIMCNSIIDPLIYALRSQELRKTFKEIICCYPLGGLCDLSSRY

N=C(N)NCCC[C@H](NC(=O)[C@@H](Cc1ccccc1)NC(=O)[C@H](Cc1c[nH]cn1)NC(=O)COCC(=O)NCCCOCCOCCOCCCNC(=O)CN(CCN(CCN(CC(=O)O)CC(=O)O)CC(=O)O)CC(=O)O)C(=O)N[C@@H](Cc1c[nH]c2ccccc12)C(N)=O [compound 1, Eu-DTPA-PEGO-His-DPhe-Arg-Trp-NH2]
Affinity for hMC4R, fold lower than the parental ligand: approximately 10 fold
